We go through five compounds from PMC7559210, “Verification of P-Glycoprotein Function at the Dermal Barrier in Diffusion Cells and Dynamic “Skin-On-A-Chip” Microfluidic Device” (Pharmaceutics, 2020).

The subject of one series is P-gp. Also on record: method as in PMID 18725258. The note with it: in vivo penetration experiments; cited from earlier work.
Series [1] deals with P-glycoprotein. The note with it: topical PSC-833; erythromycin creams.
Description: In the current study, a transdermal microdialysis technique was applied to investigate the skin penetration of test compounds through the dermal skin layer in anesthetized rats [24].
First, the epilation and shaving of the abdominal skin surface were performed under slight anesthesia, according to the protocol described in the ex vivo studies section.
The experiments were conducted the day after the skin preparation in order to eliminate the possible effect of the epilator cream and the dermal trauma caused by shaving. Animals were reanesthetized intraperitoneally with chloral hydrate with a dose of 400 mg/kg, and fixed in a supine position. In order to keep their body temperature at 37 °C during the experiment, they were placed on a heating pad. The abdominal skin was wiped dry and mechanically sensitized 10 times by tape-stripping with leucoplast (BSN Medical GmbH, Hamburg, Germany).
Two microdialysis probes (MAB11.8.10, Microbiotech, Stockholm, Sweden) were introduced in parallel at a distance of 2 cm through a guide needle (18G) into the dermal tissue. After the withdrawal of the guide needle, the probe membrane stayed in the dermal tissue, the position of which was previously verified by ultrasonic scanning. Probes were then fixed carefully with tape (Omnisilk, Hartmann, Germany).
Series [2] relates to P-glycoprotein. Type of series: in vitro ADME. As to the method:
(§1) Excised skin samples of both young and aged rats were obtained in the same way. Animals were anaesthetized intraperitoneally with chloral hydrate using a dose of 400 mg/kg. Under anesthesia, the hair of the abdominal skin was shaved off with an electric shaver, then epilated by an epilator cream (ISANA® cream from Rossmann, Burgwedel, Germany). Finally, the skin surface was washed and wiped dry. The abdominal skin was then mechanically sensitized 10 times by tape stripping (10 TS) with leucoplast (BSN Medical GmbH, Hamburg, Germany) to remove the upper layers of dead keratinocytes. The removal of the upper skin layer of the stratum corneum by adhesive tape has become a common practice in recent decades. The determination of the kinetics and penetration depth of different drugs by creating concentration–time profiles is facilitated by the use of the noninvasive method of tape stripping. Tape stripping makes it easier to evaluate the bioequivalence of topical dermatological dosage forms, and also makes it possible to reach detectable concentrations in the dermis and subcutis in preclinical animal models. […] Following these skin preparations, an approximately 1-cm, full-thickness skin incision was made in the caudal part of the abdominal area using scissors. After the first cutting with blunt Metzen scissors, fat, connecting tissue and blood vessels were carefully removed. Then, there were two options for continuing with the preparations, as follows. (1) Fresh skin preparation: Six skin disc-preparations were made from the abdominal, tape-stripped skin (approximately 3 cm in diameter each) for Franz diffusion cell study, or three skin square-preparations (approx. 1.5 cm × 1.5 cm) for skin-on-a-chip experiments. The skin preparations were stored in PPF at room temperature until the initiation of experiments, and were then placed between the donor and acceptor chambers on the cells of the Franz diffusion system or on the chip device. The stratum corneum layer of the skin contacted the test drug formulation, facing the donor chamber, while the dermal/subcutaneous surface contacted the PPF in the acceptor compartments. (2) Frozen skin preparation: Freshly prepared, tape stripped skin preparations were wrapped in an aluminum foil and stored in a deep freezer at −80 °C until the diffusion experiments. On the day of the study, the skin preparations were thawed at room temperature, and then placed on the Franz diffusion cells/chip devices in a similar way as that described for fresh skin preparation.
Hanson 6-Cell Manual Diffusion Test System-type Franz diffusion cells were used in the experiments (Hanson, ABL&E-JASCO Hungary Kft, Budapest, Hungary).
In each unit of the system, there was a heated magnetic stirrer chamber (acceptor compartment), stirred by a helical mixer (Figure 1). A magnet was placed on the bottom of the chamber and the helical mixer was connected to it. The acceptor chambers of the diffusion cells were filled with PPF. […] The diffusion surface was 1.767 cm^2. In the final step, a glass lid was placed onto the donor chambers. In each experiment, six parallel units were used and three cells of them always had the same arrangement with the same conditions. The cells were connected by plastic tubes. In these plastic connectors, distilled water at 32 °C was circulated to mimic the physiological dermal temperature. […] First, 0.5 mL samples were taken every 30 min from the acceptor compartments. After each sample collection, the removed fluid volume was replaced with PPF. Altogether, 60 samples were taken in each experiment, i.e., 10 from each unit. The collected samples were immediately placed on dry ice and stored at −80 °C until bioanalysis.
The dwell time of the transitions was 300 msec. Source conditions were as follows.

The test system of series [3] is P-glycoprotein. The following applies: fresh young rat skin. The procedure: as §1, with “The stratum corneum layer of the skin contacted the test drug formulation, facing the donor chamber, while the dermal/subcutaneous surface contacted the PPF in the acceptor compartments. (2) Frozen skin preparation: Freshly prepared, tape stripped skin preparations were wrapped in an aluminum foil and stored in a deep freezer at −80 °C until the diffusion experiments. On the day of the study, the skin preparations were thawed at room temperature, and then placed on the Franz diffusion cells/chip devices in a similar way as that described for fresh skin preparation.” left out

The conditions of series [4]: no source given; cited from earlier work.

Consider `CCC(C)n1ncn(-c2ccc(N3CCN(c4ccc(OCC5COC(Cn6cncn6)(c6ccc(Cl)cc6Cl)O5)cc4)CC3)cc2)c1=O` (stereo not shown) [itraconazole], for which, in the series with P-gp, the “drug distribution in the skin after topical application with lack of or inhibition of P-gp” value is reported as “decreased drug distributions therein”.
Consider `CC[C@H]1OC(=O)[C@H](C)[C@@H](O[C@H]2C[C@@](C)(OC)[C@@H](O)[C@H](C)O2)[C@H](C)[C@@H](O[C@@H]2O[C@H](C)C[C@H](N(C)C)[C@H]2O)[C@](C)(O)C[C@@H](C)C(=O)[C@H](C)[C@@H](O)[C@]1(C)O` [erythromycin, Erythromycin], for which the “effect of P-gp modulation on drug absorption in vivo” value with P-glycoprotein [1] is “moderate but reproducible reduction in drug absorption”. In the series on P-glycoprotein [2] (2% ERY cream), the “diffusion through frozen/thawed vs fresh skin” value is “enhanced compared to fresh skins” and the “permeability in aged vs young skin” value is “increased in the aged skin samples”. Also, in the series with P-glycoprotein [3] (2% suspension cream), the “dynamics of absorption in the 270-min observation period” value was “only the absorption phase could be reached, or the plateau was initiated”. Moreover, the “logP (lipophilicity)” value in series [4] is 3.06.
Consider rhodamine, for which the “drug distribution in the skin after topical application with lack of or inhibition of P-gp” value in the series with P-gp is reported as “decreased drug distributions therein”.
As to `C/C=C/C[C@@H](C)C(=O)[C@H]1C(=O)N[C@@H](C(C)C)C(=O)N(C)CC(=O)N(C)[C@@H](CC(C)C)C(=O)N[C@@H](C(C)C)C(=O)N(C)[C@@H](CC(C)C)C(=O)N[C@@H](C)C(=O)N[C@H](C)C(=O)N(C)[C@@H](CC(C)C)C(=O)N(C)[C@@H](CC(C)C)C(=O)N(C)[C@@H](C(C)C)C(=O)N1C` [PSC-833, valspodar], in the series on P-glycoprotein [2] (fresh skins, young and aged, 2% ERY cream, PSC-833 1 mg/mL DMSO, 100 μL, 10 min before, ANOVA, Tukey test), the “effect of PSC-833 pretreatment on erythromycin permeability (AUC)” value is given as “significant effect on permeability”. Also, in the series on P-glycoprotein [2] (fresh skins, young and aged, 2% QND cream, ANOVA, Tukey test), the “effect of PSC-833 pretreatment on quinidine permeability (AUC)” value is reported as “statistically relevant effect only on aged subjects”. The “effect of P-gp inhibitor on erythromycin absorption” value in the series on P-glycoprotein [2] (frozen aged skin, 2% ERY cream) is “opposite effect”.
Consider `C=C[C@H]1C[N@@]2CC[C@H]1C[C@@H]2[C@@H](O)c1ccnc2ccc(OC)cc12` [quinidine], for which the “permeability of the controls, aged vs young skin” value in the series with P-glycoprotein [2] (fresh skins, DMSO pretreated, 2% QND cream) is listed as “independent of age”. In the series on P-glycoprotein [3] (2% gel, PSC-833 pretreatment), the “effect of P-gp inhibition on transdermal delivery” value is given as “dramatic reduction in transdermal delivery”. The “plateau phase of skin penetration profile” value in the series with P-glycoprotein [3] (2% gel, flow 4 μL/min) is 90 to 180 min.
